The source of these data is PubChem BioAssay AID493191 (Broad Institute, 2011).

The test deals with MALME3 melanoma viability, CellTiter-Glo luminescence, 24 h. As to the kind of experiment: MALME3 melanoma cell viability loss, dose response, orthogonal assay for MITF inhibitor project, CellTiter-Glo, cherry-picked (AID 493191).
On to `Cc1ccc(C(=O)N/C(=C\c2ccc(-c3ccc(Br)cc3)o2)C(=O)NCCCN(C)C)cc1`, for which the AC50 (as a rule, the concentration giving half of the maximal activity seen) was 14.2 µM.
Next, `Cc1ccc(S(=O)(=O)/N=C2\C(=O)c3ccccc3C([O-])=C2n2cc[n+](CCC(C)C)c2)cc1`: 11.4 µM; `Cc1nc2ccccc2n1/N=C/c1ccc([N+](=O)[O-])s1`: 26.4 µM.
For the molecule `O=C1C(Cl)=C(Nc2ccccc2)C(=O)c2ccccc21`, the half-maximal activity concentration (AC50) was 5.66 µM.
Next, `CN1CCC(N(C)C(=O)/C=C/c2cn(-c3ccccc3)nc2-c2cccs2)CC1`: 29.7 µM; `CCN(CC)CCNC(=O)c1c(C)n(-c2ccccc2)c2cc(Br)c(OC)cc12`: 18.9 µM.
With `Cc1ccc(C(C)C)c(OCc2nn(CC(=O)c3ccc(OC(F)F)cc3)c3[n+]2CCCCC3)c1` the figure was 24.2 µM; with `O=C(Nc1cccc(S(=O)(=O)N2CCCCC2)c1)c1ccc([N+](=O)[O-])o1`, 15.9 µM; with `O=C(CS(=O)c1ccc(C(F)(F)F)cc1[N+](=O)[O-])Oc1ccccc1` (stereo not drawn), 20.7 µM.
With `Cc1cc(Sc2ncnc(N)c2[N+](=O)[O-])ncn1` the figure was 34 µM; with `CCN(CC)CCn1nc2c3c(cccc3c1=O)-c1ccccc1-2`, 28.4 µM; with `COc1cc2c(cc1OC)C(c1ccccc1)N(C(=O)CCl)CC2` (stereo not drawn), 18 µM.
On to `O=C(N/N=C/c1ccc([N+](=O)[O-])s1)C(O)c1ccccc1` (stereo not drawn), for which the AC50 is 22.7 µM.
Take `CC(=O)OCCNc1cc(Sc2nc3ccccc3[nH]2)c2nonc2c1[N+](=O)[O-]`: the half-maximal activity concentration (AC50) was 13.6 µM.
Regarding `O=C(Cn1ncc(Cl)c(Cl)c1=O)NCC1CCCCC1`, the AC50 was 9.94 µM.
For the molecule `CCN(CC)S(=O)(=O)c1ccc(N2CCCC2)c(NC(=O)c2ccc([N+](=O)[O-])o2)c1`, the AC50 was 19.5 µM.
Next, `CC(NC(=O)C12CC3CC(CC(C3)C1)C2)C(=O)NN=Cc1ccc([N+](=O)[O-])o1` (stereo not drawn): 26.9 µM; `O=c1c(Cl)c2oc3ccccc3nc-2c2ccccc12`: 14.3 µM; `CS(=O)(=O)c1ncc(Cl)c(C(=O)Nc2ccc3ccccc3c2)n1`: 15.2 µM.
Next, `COc1ccccc1NS(=O)(=O)c1cccc(C(=O)N/N=C/c2ccc([N+](=O)[O-])o2)c1`: 14.6 µM.
With `COC1=C(c2ccccc2)C(=O)c2ccccc2C1=O` the figure was 20.3 µM; with `CCN(CC)CCNC(=O)C1CCN(S(=O)(=O)c2c(C)noc2/C=C/c2ccccc2F)CC1`, 30.4 µM.
As to `CCCCC[n+]1ccn(C2=C([O-])c3ccccc3C(=O)/C2=N\S(=O)(=O)c2ccccc2)c1`, the half-maximal activity concentration (AC50) is 14.2 µM.
With `CCOC(=O)c1ccc(NC2=CC(=O)C(=O)c3ccccc32)cc1` the figure was 5.16 µM; with `CC(=O)Nc1ccc(S(=O)(=O)NC2=C(N3CCN(C)CC3)C(=O)c3ccccc3C2=O)cc1`, 8.92 µM; with `CC(NC(=O)c1ccc([N+](=O)[O-])o1)C12CC3CC(CC(C3)C1)C2` (stereo not drawn), 31.9 µM.
As to `CCOC(=O)CCc1ccc(NC(=O)/C=C/c2ccc([N+](=O)[O-])o2)cc1`, the AC50 was 13.9 µM.
As for `CCN1CCCC1CNC(=O)c1ccc2c(c1)NC(=O)/C(=C\c1ccc(C)cc1)S2` (stereo not drawn), the AC50 was 26 µM.
Next, `CN1CCN(c2ccc(NC(=O)c3ccc([N+](=O)[O-])o3)cc2Cl)CC1`: 21.3 µM; `COC1=C(Nc2ccccc2)C(=O)c2ccccc2C1=O`: 22 µM.
Turning to `N=c1n(CC(=O)c2ccc([N+](=O)[O-])cc2)c2ccccc2n1Cc1ccccc1`, the AC50 is 25.4 µM.
Next, `N#CC(C#N)=C1C=CC=CN1/C(=C\c1ccco1)C(=O)c1ccc(Cl)cc1`: 27.3 µM; `CCc1cc[n+](C2=C([O-])c3ccccc3C(=O)/C2=N\S(=O)(=O)c2cccs2)cc1`: 4.51 µM.
On to `O=[N+]([O-])c1cccc2c(N3CCCC3)ccnc12`, for which the AC50 is 4.82 µM.
Next, `O=C1C=C(N(CCO)Cc2ccccc2)c2ccccc2C1=O`: 16 µM; `COc1ccc(-c2cc(-c3ccccc3)c(C#N)c(S(C)=O)n2)cc1` (stereo not drawn): 23.8 µM; `CN(C)CCCNC(=O)/C(=C\c1ccc(-c2ccc(Br)cc2)o1)NC(=O)c1ccccc1`: 16.3 µM.
With `Cc1cc(C)cc(OCC(=O)N/N=C/c2ccc([N+](=O)[O-])o2)c1`, the AC50 was 22.9 µM.
For `CCN1CCN(CCCNC(=O)c2ccc3c(c2)NC(=O)/C(=C\c2cccc(C)c2)S3)CC1`, the concentration at half-maximal activity (AC50) was 28.1 µM.
With `CC(C)C(=O)N1CCN(c2ccc(NC(=O)c3ccc([N+](=O)[O-])o3)cc2Cl)CC1` the figure was 19.2 µM; with `COc1cc(NC(=O)COc2ccccc2[N+](=O)[O-])ccc1NC(=O)c1cccs1`, 26.7 µM; with `O=[N+]([O-])c1ccc(S(=O)(=O)CC(CN2CCCCC2)N2CCCCC2)cc1` (stereo not drawn), 13.4 µM.
With `CCOC(=O)N1C(=O)[C@@](CC)(c2ccccc2)N1C(=O)OCC` the figure was 26.2 µM; with `Cc1c(CCOC(=O)c2ccc(Cl)cc2Cl)sc[n+]1CC(=O)c1ccc(Br)cc1`, 29.3 µM.
In the case of `COc1ccc(NC(=O)CCC(=O)N/N=C/c2ccc([N+](=O)[O-])s2)cc1`, the AC50 is 28.2 µM.
With `CC(C)Oc1ccc(C(CCNCc2ccc(O)cc2)c2ccccc2)cc1` (stereo not drawn) the figure was 32.9 µM.
With `COc1cccc(C(=O)Oc2c(CN3CCOCC3)cc(Cl)c3cccnc23)c1` the figure was 30.7 µM.
With `CCSCCc1nnc(NC(=O)Nc2cccc(C(F)(F)F)c2)s1` the figure was 29 µM; with `CC1CCC(C(C)C)C(OC(=O)Cn2c(-c3ccc(Br)cc3)[n+](C)c3ccccc32)C1` (stereo not drawn), 10.1 µM.
With `CC(C)=NOc1cc(NC(=O)CCl)cc([N+](=O)[O-])c1`, the AC50 is 5.64 µM.
With `O=c1c2ccccc2nc(/C=C/c2ccc([N+](=O)[O-])o2)n1-c1ccc(O)cc1` the figure was 14.5 µM.
`O=C(CNc1cccc([N+](=O)[O-])c1)N/N=C/c1ccc([N+](=O)[O-])o1`: the half-maximal activity concentration (AC50) was 16.9 µM.
As for `COc1ccc(CNCCC(c2ccc(F)cc2)c2ccc(OC)cc2)cc1` (stereo not drawn), the half-maximal activity concentration (AC50) was 22 µM.
As to `Cn1cc([N+](=O)[O-])c(C(=O)Nc2nc(-c3ccc(Cl)cc3)cs2)n1`, the AC50 is 26.5 µM.
With `Cc1ccc(Cn2c(=N)n(CC(=O)c3ccc([N+](=O)[O-])cc3)c3ccccc32)cc1` the figure was 18.6 µM.
With `O=C(Cn1ncc(Cl)c(Cl)c1=O)N1CCc2ccccc21` the figure was 5.98 µM.
Next, `Cc1cc(C)cc(NC(=O)c2ccc([N+](=O)[O-])o2)c1`: 17.9 µM.
`COc1ccc(C(=O)/C=C/C(=O)N(CC(=O)NC2CCCCC2)Cc2ccccc2)c(O)c1`: the AC50 is 6.88 µM.
Next, `O=C(Cn1ncc(Cl)c(Cl)c1=O)N1CCOCC1`: 20.6 µM.
With `CC(=O)N1CCc2c(sc(NC(=O)c3ccc([N+](=O)[O-])o3)c2C#N)C1` the figure was 9.37 µM; with `S=C=Nc1cccc(C2(N3CCCCC3)CCCCC2)c1`, 26 µM; with `COc1cc(/C=N/N=C(N)N)ccc1OCc1ccc(Cl)cc1`, 19.9 µM.
With `CC1(C(=O)N/N=C/c2ccc([N+](=O)[O-])o2)CC1(Br)Br` (stereo not drawn) the figure was 34 µM.
Consider `O=C1CN(C(=O)Cn2ncc(Cl)c(Cl)c2=O)c2ccccc2N1`, for which the AC50 is 15.4 µM.
With `CCN1CCN(c2ccc(S(=O)(=O)N3CCCCC3)cc2NC(=O)/C=C/c2ccc([N+](=O)[O-])cc2)CC1` the figure was 23.9 µM; with `C#CCCc1ccccc1/C=[N+](/C)[O-]`, 28.8 µM; with `CCN(CC)CCCNC1=C(Cl)C(=O)c2ccccc2C1=O`, 5.64 µM.
Turning to `Cc1ccc(-n2cc(CNCCCn3ccnc3C)c(-c3ccc(F)cc3)n2)cc1`, the AC50 was 15.8 µM.
Next, `COc1ccc(C(=O)/C=C/C(=O)N(CC(=O)NC2CCCCC2)Cc2cccs2)c(O)c1`: 5.25 µM.
Take `COc1ccc2oc(C(=O)Nc3ccc(S(=O)(=O)N(C)C4CCN(C)CC4)cc3)c(C)c2c1`: the AC50 is 33.5 µM.
With `CCS(=O)(=O)c1ccc(N=Nc2ccc(O)c3ncccc23)c(OC)c1` the figure was 5.85 µM.
For `c1ccc2cc3c(NCCN4CCOCC4)ccnc3cc2c1`, the AC50 is 4.49 µM.
With `CCOc1cc(/C=N/N=C(N)N)ccc1OCc1ccc(Cl)cc1` the figure was 18.8 µM.
Next, `Cc1oc(-c2ccc(Cl)cc2)nc1CN1CCC(C(=O)NCCCN2CCCC(C)C2)CC1` (stereo not drawn): 24.4 µM.
Next, `CC(=O)c1cccc(NC(=O)/C=C/c2ccc([N+](=O)[O-])s2)c1`: 16.8 µM.
Take `O=C(N/N=C\c1ccc([N+](=O)[O-])o1)C1COc2ccccc2O1` (stereo not drawn): the AC50 was 32.7 µM.
With `Cc1ccccc1OCc1n(CC(=O)OC2CC(C)CCC2C(C)C)c2ccccc2[n+]1C` (stereo not drawn) the figure was 9.18 µM; with `CCOC(=O)c1cc2sccc2n1CC(=O)N1c2ccccc2CC1C` (stereo not drawn), 25 µM.
As for `O=C1c2ccccc2C(=O)c2c1ncn2-c1ccccc1`, the AC50 was 19.2 µM.
As to `N#CC(C#N)=C1C=CC=CN1/C(=C\c1ccco1)C(=O)c1ccc(Br)cc1`, the AC50 is 24.6 µM.
Next, `Cc1ccc(C)c(C(=O)Cn2ncc(Cl)c(Cl)c2=O)c1`: 16 µM.
With `O=C1c2cc(F)ccc2-n2c1nc1ccccc1c2=O` the figure was 4.39 µM; with `CC1(C)Cc2ccccc2C2=NNC(=O)C2=N1`, 7 µM.
On to `CC(=O)Nc1ccc(NC(=O)c2nc(S(=O)(=O)Cc3ccccc3)ncc2Cl)cc1`, for which the AC50 is 5.12 µM.
`CNC(=O)COC(=O)c1ccccc1C(=O)c1ccc(Cl)c([N+](=O)[O-])c1`: the AC50 is 23.8 µM.
Next, `Cc1c(N=C2C=CC(=O)c3ccccc32)c(=O)n(-c2ccccc2)n1C`: 32 µM; `CC(C)(c1ccccc1)c1ccc(OCC(O)CNC2CCN(Cc3ccccc3)CC2)cc1` (stereo not drawn): 13.5 µM; `COc1ccc(C[C@H]2CN3C(=NC[C@@H]3C(C)C)N2CCNC(=O)c2ccc(C)c(Br)c2)cc1`: 27.1 µM.
Next, `CCOc1c(Br)cc(CNC2CCCCCCC2)cc1OC`: 27.6 µM; `O=C1/C(=C/c2ccccc2[N+](=O)[O-])COc2ccccc21`: 25.3 µM; `CCOC(=O)c1cc([N+](=O)[O-])c([N+](=O)[O-])cc1NC(C)=O`: 29.9 µM.
With `CC(C)(C)c1ccc(Cn2c(=N)n(CC(O)c3ccco3)c3ccccc32)cc1` (stereo not drawn) the figure was 18.3 µM; with `Cc1ccc(C(O)(c2ccc(C)c(C)c2)C2CN3CCC2CC3)cc1C` (stereo not drawn), 22.7 µM.
